Data reported in article doi:10.1101/2020.04.13.040287v1 (biorxiv, 2020).
Read-outs that look alike come from different tables or passages of the source.

Tests used:
[1] = in vitro; settings: human
[2] = in vitro; settings: rat, plasma
[3] = in vitro; settings: dog
[4] = in vitro; settings: human, intestinal s9
[5] = in vitro; settings: dog, intestinal s9
[6] = tested on: DEN2; test: microbe, parasite or virus in culture; settings: Dengue virus, THP-1, read-out: THP-1 DEN2 assay (EC50)
[7] = tested on: DEN2; test: microbe, parasite or virus in culture; settings: Dengue virus, K562, read-out: K562 DEN2 assay (EC50)
[8] = tested on: DEN2; test: microbe, parasite or virus in culture; settings: Dengue virus, HEK-293T, read-out: 293T DEN2 assay (EC50)
[9] = in vitro; settings: human, plasma
[10] = in vitro; settings: dog, plasma
[11] = liver s9, Liver S9 T1/2 (min) human
[12] = liver s9, Liver S9 T1/2 (min) dog

| SMILES | half-life [1, 11] [h] | half-life ([2]; Plasma T1/2 (min) rat) [h] | half-life [3, 12] [h] | also measured |
| --- | --- | --- | --- | --- |
| CCOc1nc(N)nc2c1ncn2[C@@H]1O[C@@H]2COP(=O)(OC(C)C)O[C@H]2[C@@]1(C)F (some centres unmarked) [compound 4, PSI-352938] | > 2 | – | – | – |
| COc1nc(N)nc2c1ncn2[C@@H]1O[C@H](COP(=O)(N[C@@H](C)C(=O)OC(C)C)Oc2ccccc2)[C@@H](O)[C@@]1(C)F (some centres unmarked) [compound 5, PSI-353661] | – | – | – | half-life [2]: < 0.0833 h; half-life ([1]; liver s9): 0.3 h; half-life ([3]; liver s9): 0.85 h; half-life [4]: > 2 h; half-life [5]: 1.2 h |
| CCOc1nc(N)nc2c1ncn2C1OC2COP(=O)(NCC(=O)OC(C)C)OC2C1(C)F (centres unmarked) [compound 16, 16] | 0.967 | < 0.0833 | 1.52 | – |
| CCOC(=O)C(C)NP1(=O)OCC2OC(n3cnc4c(OCC)nc(N)nc43)C(C)(F)C2O1 (centres unmarked) [compound 17, 17] | – | – | – | EC50 [6]: 0.46 ± 0.2 µM; EC50 [7]: 2.79 ± 0.22 µM; EC50 [8]: 3.4 µM |
| CCOC(=O)C(NP1(=O)OCC2OC(n3cnc4c(OCC)nc(N)nc43)C(C)(F)C2O1)C(C)C (centres unmarked) [compound 20, 20] | 1.37 | 1.1 | 1.02 | – |

Further lines, with some results ahead:

| half-life [1, 11] [h] | half-life ([2]; Plasma T1/2 (min) rat) [h] | half-life [3, 12] [h] | SMILES | also measured |
| --- | --- | --- | --- | --- |
| – | < 0.0833 | 0.933 | CCOc1nc(N)nc2c1ncn2C1OC2COP(=O)(NC(C)C(=O)OC(C)C)OC2C1(C)F (centres unmarked) [compound 12, 12] | – |
| – | < 0.0833 | – | COC(=O)C(C)NP1(=O)OCC2OC(n3cnc4c(OC(C)C)nc(N)nc43)C(C)(F)C2O1 (centres unmarked) [compound 19, 19] | half-life [9]: 1.88 h; half-life [10]: > 2 h |
